Data published in patent US9995734B2, “Human T cell line assay for evaluating the immunologic identity of glatiramer acetate preparations” (Mylan Inc., priority 2013, dated 2018).

What was measured:
[1] = test system: Donor 3 GMA Responsive T Cells; assay: Cytokine multiplex assay, Donor 3 GMA responsive T cells; type: cell-based, human; details: culture medium
Procedure: (§1) The concentration of multiple cytokines was measured simultaneously using FlowCytoMix™ kits (eBioscience, San Diego Calif.). These are fluorescent bead based assays consisting of beads conjugated to anti cytokine antibodies. Beads specific for each cytokine are distinguished by size and fluorescence at 670 run. Cytokine bound to each bead is detected using a phycoerythrin conjugated antibody so that the fluorescence at 585 nm reflects the concentration of cytokine in the sample. Two kits were utilized which measured different cytokine panels. The TH1/TH2 kit measures IFN-γ, IL-1β, IL-2, IL-4, IL-5, IL-6, IL-8, IL-10, IL-12p70, TNF-α (TNF) and TNF-β (LT). The TH1/TH2/TH9/TH17/TH22 kit measures […], IL-1β, IL-2, IL-4, IL-5, IL-6, IL-9, IL-10, IL-12p70, IL-13, IL-17, IL-22, and TNF-α (TNF). Both kits were used following the manufacturer's instructions.

[2] = test system: Donor 4 COP Responsive T-Cell Lines; assay: Multiplex bead cytokine assay (FlowCytomix), Donor 4 COP responsive T-cell lines; type: cell-based, human; parameters: IFN-γ / 1L-9 / IL-22 / IL-13: unit not given here
Procedure: as §1
On Day 23 the positive wells (cell lines listed in Table 26) were transferred to a 24-well plate and restimulated with 10 μg/mL COP in the presence of mitomycin-treated autologous PBMC. IL-2 was added at Day 24. On Day 31 (after four rounds of restimulation) ten lines were restimulated with 10 μg/mL COP to confirm antigen reactivity by a cytokine secretion assay. T-cells were added at 2×10^4 cells/well in 96-well plates in X-VIVO 15 medium. Each line was separately stimulated with 10 μg/mL GMA, and 10 μg/mL COP in the presence of (2×10^5 cells/well, i.e., 1×10^6 cells/mL) mitomycin-treated autologous PBMC. Culture medium was collected after 20-24 hours for cytokine assay (FlowCytomix multiplex bead assay). The supernatants were tested in triplicate for IL-12 p70, IFN-γ, IL-2, IL-10, IL-6, IL-4, IL-5, TNF-α, and TNF-β secretion. […] Secretion of IL-2, 11-10, and IL-4 varied among the lines. All samples also secreted IL-8 (data not shown).
Culture medium from each of two Donor 4 cell lines was assayed for an extended panel of cytokines, showing production of IL-13 and IL-22 (Table 32).

[3] = T-cell line 1H9, 10 μg/mL, Day 31, medium after 20-24 hours
[4] = T-cell line 1H11, 10 μg/mL, Day 31, medium after 20-24 hours
[5] = T-cell line 205-1B4, extended cytokine multiplex assay
[6] = T-cell line 205-1B7, 10 μg/mL, Day 31, medium after 20-24 hours
[7] = T-cell line 205-1C4, 10 μg/mL, Day 31, medium after 20-24 hours
[8] = T-cell line 205-1F4, extended cytokine multiplex assay
[9] = T-cell line 205-1F5, 10 μg/mL, Day 31, medium after 20-24 hours
[10] = T-cell line 205-1G3, 10 μg/mL, Day 31, medium after 20-24 hours
[11] = T-cell line 205-1H5, 10 μg/mL, Day 31, medium after 20-24 hours
[12] = T-cell line 205-1H7, 10 μg/mL, Day 31, medium after 20-24 hours

glatiramer acetate [COP]
IFN-γ ([1]; T-cell line 165-B5G): 190 pg/mL
IL-4 ([1]; T-cell line 165-B5G): 17 pg/mL
IL-5 ([1]; T-cell line 165-B5G): 374 pg/mL
IL-13 ([1]; T-cell line 165-B5G): 2927 pg/mL
IL-22 ([1]; T-cell line 165-B5G): 106 pg/mL
IFN-γ ([1]; T-cell line 165-D8G): 115 pg/mL
IL-4 ([1]; T-cell line 165-D8G): 14 pg/mL
IL-5 ([1]; T-cell line 165-D8G): 309 pg/mL
IL-13 ([1]; T-cell line 165-D8G): 3121 pg/mL
IL-22 ([1]; T-cell line 165-D8G): 365 pg/mL
IFN-γ ([1]; T-cell line 165-E9G): 638 pg/mL
IL-4 ([1]; T-cell line 165-E9G): 12 pg/mL
IL-5 ([1]; T-cell line 165-E9G): 208 pg/mL
IL-13 ([1]; T-cell line 165-E9G): 1232 pg/mL
IL-22 ([1]; T-cell line 165-E9G): 192 pg/mL
IFN-γ ([1]; T-cell line 165-F8G): 771 pg/mL
IL-4 ([1]; T-cell line 165-F8G): 0 pg/mL
IL-5 ([1]; T-cell line 165-F8G): 297 pg/mL
IL-13 ([1]; T-cell line 165-F8G): 1017 pg/mL
IL-22 ([1]; T-cell line 165-F8G): 198 pg/mL
IFN-γ ([1]; T-cell line 165-F10G): 1165 pg/mL
IL-4 ([1]; T-cell line 165-F10G): 122 pg/mL
IL-5 ([1]; T-cell line 165-F10G): 2586 pg/mL
IL-13 ([1]; T-cell line 165-F10G): 11285 pg/mL
IL-22 ([1]; T-cell line 165-F10G): 686 pg/mL
IFN-γ ([1]; T-cell line 165-H11G): 724 pg/mL
IL-4 ([1]; T-cell line 165-H11G): 9 pg/mL
IL-5 ([1]; T-cell line 165-H11G): 321 pg/mL
IL-13 ([1]; T-cell line 165-H11G): 1095 pg/mL
IL-22 ([1]; T-cell line 165-H11G): 190 pg/mL
IFN-y [2, 3]: 419.21 pg/mL
IL-2 [2, 3]: <=0 pg/mL
IL-4 [2, 3]: <=0 pg/mL
IL-5 [2, 3]: <=0 pg/mL
IL-6 [2, 3]: <=0 pg/mL
IL-10 [2, 3]: <=0 pg/mL
IL-12 p70 [2, 3]: <=0 pg/mL
TNF-α [2, 3]: 159.6 pg/mL
TNF-β [2, 3]: <=0 pg/mL
IFN-y [2, 4]: 1016.21 pg/mL
IL-2 [2, 4]: 44.94 pg/mL
IL-4 [2, 4]: 2.09 pg/mL
IL-5 [2, 4]: 3665.58 pg/mL
IL-6 [2, 4]: 20.11 pg/mL
IL-10 [2, 4]: 143.84 pg/mL
IL-12 p70 [2, 4]: 3.68 pg/mL
TNF-α [2, 4]: 754.13 pg/mL
TNF-β [2, 4]: 1.55 pg/mL
1L-9 [2, 5]: 29
IFN-γ [2, 5]: 726
IL-2 [2, 5]: 0
IL-4 [2, 5]: 174
IL-5 [2, 5]: 3660
IL-6 [2, 5]: 114
IL-10 [2, 5]: 32
IL-13 [2, 5]: 19288
IL-22 [2, 5]: 668
TNF-α [2, 5]: 1336
IFN-y [2, 6]: 935.78 pg/mL
IL-2 [2, 6]: 27.99 pg/mL
IL-4 [2, 6]: 200.19 pg/mL
IL-5 [2, 6]: 7199.83 pg/mL
IL-6 [2, 6]: 195.27 pg/mL
IL-10 [2, 6]: 210.01 pg/mL
IL-12 p70 [2, 6]: 18.39 pg/mL
TNF-α [2, 6]: 1286.09 pg/mL
TNF-β [2, 6]: 244.68 pg/mL
IFN-y [2, 7]: 1212.03 pg/mL
IL-2 [2, 7]: 478.51 pg/mL
IL-4 [2, 7]: 199.97 pg/mL
IL-5 [2, 7]: 6457.14 pg/mL
IL-6 [2, 7]: 159.24 pg/mL
IL-10 [2, 7]: 50.31 pg/mL
IL-12 p70 [2, 7]: 51.14 pg/mL
TNF-α [2, 7]: 1529.22 pg/mL
TNF-β [2, 7]: 69.07 pg/mL
1L-9 [2, 8]: 10
IFN-γ [2, 8]: 1393
IL-2 [2, 8]: 110
IL-4 [2, 8]: 10
IL-5 [2, 8]: 1440
IL-6 [2, 8]: 77
IL-10 [2, 8]: 0
IL-13 [2, 8]: 4502
IL-22 [2, 8]: 168
TNF-α [2, 8]: 616
IFN-y [2, 9]: 452.76 pg/mL
IL-2 [2, 9]: 205.85 pg/mL
IL-4 [2, 9]: 293.46 pg/mL
IL-5 [2, 9]: 13727.89 pg/mL
IL-6 [2, 9]: 318.25 pg/mL
IL-10 [2, 9]: 323.52 pg/mL
IL-12 p70 [2, 9]: 55.94 pg/mL
TNF-α [2, 9]: 833.39 pg/mL
TNF-β [2, 9]: 278.68 pg/mL
IFN-y [2, 10]: 211.16 pg/mL
IL-2 [2, 10]: 10.89 pg/mL
IL-4 [2, 10]: <=0 pg/mL
IL-5 [2, 10]: 91.11 pg/mL
IL-6 [2, 10]: 11.79 pg/mL
IL-10 [2, 10]: <=0 pg/mL
IL-12 p70 [2, 10]: <=0 pg/mL
TNF-α [2, 10]: 38.56 pg/mL
TNF-β [2, 10]: <=0 pg/mL
IFN-y [2, 11]: 1149.77 pg/mL
IL-2 [2, 11]: 15.14 pg/mL
IL-4 [2, 11]: 79.67 pg/mL
IL-5 [2, 11]: 3106.45 pg/mL
IL-6 [2, 11]: 57.31 pg/mL
IL-10 [2, 11]: 28.45 pg/mL
IL-12 p70 [2, 11]: 7.96 pg/mL
TNF-α [2, 11]: 1260.75 pg/mL
TNF-β [2, 11]: 88.62 pg/mL
IFN-y [2, 12]: 1617.25 pg/mL
IL-2 [2, 12]: 351.63 pg/mL
IL-4 [2, 12]: 90.37 pg/mL
IL-5 [2, 12]: 101.71 pg/mL
IL-6 [2, 12]: 69.44 pg/mL
IL-10 [2, 12]: 10.06 pg/mL
IL-12 p70 [2, 12]: 11.11 pg/mL
TNF-α [2, 12]: 1924.81 pg/mL
TNF-β [2, 12]: 49.17 pg/mL
cytokine secretion ([2]; most tested Donor 4 cell lines, Day 31, 10 μg/mL, 20-24 hours): secreted IFN-γ, IL-5, and TNF-α
